One series has as its target T1, aldose reductase (Rattus norvegicus, UniProt P07943).
T1 construct: A homogenate of rat lenses was used as an enzyme source; from tissue; host or cells: rat lens, supernatant of the homogenate after centrifugation
Briefly: Aldose reductase-inhibiting activity (rat lens homogenate supernatant, D,L-glyceroaldehyde substrate, TPNH coenzyme). In kind it is biochemical. The following applies: 10 mM D,L-glyceroaldehyde, 0.1 mM TPNH, pH 6.2, 25° C., absorbance at 340 nm. As for the experimental part: Aldose Reductase-Inhibiting Activity
A homogenate of rat lenses was used as an enzyme source, glyceroaldehyde as a substrate, and TPNH as a coenzyme. To a mixture of 0.1M phosphate buffer (pH 6.2), 0.4M sodium sulfate, 0.1 mM TPNH (reduced form of triphosphopyridine nucleotide), and 10 mM D, L-glyceroaldehyde, a supernatant obtained from the homogenate of rat lenses by centrifugation was added as an enzyme source, so that the change in absorbance at 340 nm became 0.02 units per minute at 25° C. The change in absorbance at 340 nm for initial one minute was measured at 25° C., and the inhibiting activity was determined.

A further series is described as follows: Solubility in solvents. The following applies: for State: solubility in organic solvents: organic solvents such as ethyl acetate, acetone, methanol, and ethanol. In kind it is physicochemical.

Entries after “also recorded” stand apart in the source; their conditions may differ.

This is an account of results in patent US5324742A, “Aldose reductase inhibitor obtained from Crucibulum sp. RF-3817” (Shionogi & Co., Ltd., priority 1990, dated 1994).

Usually IC50 stands for the midpoint of a concentration-inhibition curve. As for `CC(C(=O)O)C1Cc2c(cc3c(c2O)CN(C(CCC(=O)O)C(=O)O)C3=O)O1` (centres unmarked) [RD-01-A3], the midpoint of inhibition against aldose reductase, the IC50, lay at 11.9 µM. Further, the “State: solubility in organic solvents” value in “Solubility in solvents” is “soluble”.
In the case of `CC(C(=O)O)C1Cc2c(cc3c(c2O)CN(CC(=O)O)C3=O)O1` (centres unmarked) [RD-01-A4], in the series “Solubility in solvents”, the “State: solubility in organic solvents” value is given as “soluble”. Besides, the Solubility entry in the series “Solubility in solvents” (solvents: ethyl acetate, DMSO, methanol, ethanol, chloroform, ether, petroleum ether) is “soluble in ethyl acetate, DMSO, methanol, and ethanol; also recorded: slightly soluble in chloroform and ether; also recorded: insoluble in petroleum ether”.
For the molecule `CC(C(=O)O)C1Cc2c(cc3c(c2O)CN(C(C)C(=O)O)C3=O)O1` (centres unmarked) [RD-01-A7], the “State: solubility in organic solvents” value in the series “Solubility in solvents” was “soluble”.
Still for that read-out and setting: the result for `CC(C(=O)O)C1Cc2c(cc3c(c2O)C(=O)NC3=O)O1` (centres unmarked) [RD-01-C1] reads “soluble”.
On the same count and under the same terms, the result for `CC(C(=O)O)C1Cc2c(cc3c(c2O)C(=O)N(CC(=O)O)C3=O)O1` (centres unmarked) [RD-01-C2] reads “soluble”; that for `CC(C(=O)O)C1Cc2c(cc3c(c2O)C(=O)N(C(C)C(=O)O)C3=O)O1` (centres unmarked) [RD-01-C3], “soluble”.
